From publication PMC10141580, “Cyclic Dichalcogenides Extend the Reach of Bioreductive Prodrugs to Harness Thiol/Disulfide Oxidoreductases: Applications to seco-Duocarmycins Targeting the Thioredoxin System” (ACS Central Science, 2023)
Read-outs that look alike come from different tables or passages of the source.

System: panel of 140 standard cancer cell lines
Test: ProliFiler-140 cancer cell line screen (CellTiterGlo, 72 h)
Format: cell-based
Details: Homo sapiens
Method: Incubations were performed for 72 h before automated viability readout with CellTiterGlo (Figure 8).
End of Figure S11 (part 5 of 5): ProliFiler-140 cancer cell line screening for cytotoxicity of the prodrugs.
8-data-point dose response curves from CellTiter-Glo® viability readout.
ProliFiler-140 cell line panel part V

- IC50 (DV-90, DV90 (Lung), read-out: IC50 [M] (ProliFiler-140)): 1.9e-08 M
- IC50 (Detroit 562, Detroit562 (Head/Neck), read-out: IC50 [M] (ProliFiler-140)): 1.54e-07 M
- IC50 (EFM-19, EFM-19 (Breast), read-out: IC50 [M] (ProliFiler-140)): 4.7e-07 M
- IC50 (EFO-27, EFO-27 (Ovary), read-out: IC50 [M] (ProliFiler-140)): 2.9e-07 M
- IC50 (EPLC-272H, EPLC-272H (Lung), read-out: IC50 [M] (ProliFiler-140)): 1.97e-07 M
- IC50 (HCC38, HCC38 (Breast), read-out: IC50 [M] (ProliFiler-140)): 5.21e-08 M
- IC50 (HCC827, HCC827 (Lung), read-out: IC50 [M] (ProliFiler-140)): 3.5e-07 M
- IC50 (HCC1569, HCC 1569 (Breast), read-out: IC50 [M] (ProliFiler-140)): 7e-07 M
- IC50 (HCT-15, HCT-15 (Colon), read-out: IC50 [M] (ProliFiler-140)): 6.43e-07 M
- IC50 (HCT-116, HCT116 (Colon), read-out: IC50 [M] (ProliFiler-140)): 1.07e-07 M
- IC50 (HCT-116, HCT116, read-out: IC50): 1.1e-07 M
- IC50 (HEC-1-A, HEC-1-A (Endometrium), read-out: IC50 [M] (ProliFiler-140)): 3.3e-07 M
- IC50 (HEC-1B, HEC-1-B (Endometrium), read-out: IC50 [M] (ProliFiler-140)): 2.4e-06 M
- IC50 (HL-60, HL-60 (Blood), read-out: IC50 [M] (ProliFiler-140)): 2.6e-08 M
- IC50 (HL-60, HL-60, read-out: IC50): 2.6e-08 M
- IC50 (HT-29, HT-29 (Colon), read-out: IC50 [M] (ProliFiler-140)): 3.7e-07 M
- IC50 (HT-29, HT-29, read-out: IC50): 3.7e-07 M
- IC50 (HT-1080, HT-1080 (Fibrosarcoma), read-out: IC50 [M] (ProliFiler-140)): 7.6e-08 M
- IC50 (HeLa, HeLa (Cervix), read-out: IC50 [M] (ProliFiler-140)): 8.04e-08 M
- IC50 (Hs746T, Hs 746T (Stomach), read-out: IC50 [M] (ProliFiler-140)): 4e-07 M
- IC50 (HuTu80, Hutu 80 (Duodenum), read-out: IC50 [M] (ProliFiler-140)): 1.87e-08 M
- IC50 (Huh-7, HuH7 (Liver), read-out: IC50 [M] (ProliFiler-140)): 2.1e-07 M
- IC50 (Ishikawa, Ishikawa (Endometrium), read-out: IC50 [M] (ProliFiler-140)): 7.7e-08 M
- IC50 (JIMT-1, JIMT-1 (Breast), read-out: IC50 [M] (ProliFiler-140)): 1.3e-06 M
- IC50 (JVM-3, JVM-3 (Blood), read-out: IC50 [M] (ProliFiler-140)): 3e-08 M
- IC50 (Jurkat, Jurkat (Blood), read-out: IC50 [M] (ProliFiler-140)): 4.01e-08 M
- IC50 (K562, K562 (Blood), read-out: IC50 [M] (ProliFiler-140)): 4.4e-07 M
- IC50 (KARPAS-299, KARPAS 299 (Blood), read-out: IC50 [M] (ProliFiler-140)): 7.32e-08 M
- IC50 (KATO III, Kato III (Stomach), read-out: IC50 [M] (ProliFiler-140)): 9e-07 M
- IC50 (KG-1a, KG-1 a (Blood), read-out: IC50 [M] (ProliFiler-140)): 4.91e-07 M
- IC50 (KMS-12-BM, KMS-12-BM (Blood), read-out: IC50 [M] (ProliFiler-140)): 1.65e-07 M
- IC50 (LN-229, LN229 (Brain), read-out: IC50 [M] (ProliFiler-140)): 2.16e-07 M
- IC50 (LNCaP, LnCap (Prostate), read-out: IC50 [M] (ProliFiler-140)): 1.9e-07 M
- IC50 (LoVo, LOVO (Colon), read-out: IC50 [M] (ProliFiler-140)): 1.11e-07 M
- IC50 (MDA-MB-435, MDA MB 435 (Skin), read-out: IC50 [M] (ProliFiler-140)): 4.8e-07 M
- IC50 (MDA-MB-468, MDA-MB-468 (Breast), read-out: IC50 [M] (ProliFiler-140)): 4.7e-08 M
- IC50 (MEC1, MEC-1 (Blood), read-out: IC50 [M] (ProliFiler-140)): 7.3e-08 M
- IC50 (MIA PaCa-2, Mia PaCA 2 (Pancreas), read-out: IC50 [M] (ProliFiler-140)): 7.37e-08 M
- IC50 (MKN-1, MKN-1 (Stomach), read-out: IC50 [M] (ProliFiler-140)): 5.2e-08 M
- IC50 (MKN-45, MKN-45 (Stomach), read-out: IC50 [M] (ProliFiler-140)): 3.16e-07 M
- IC50 (MOLM-13, MOLM-13 (Blood), read-out: IC50 [M] (ProliFiler-140)): 2.1e-08 M
- IC50 (MOLT-4, MOLT-4 (Blood), read-out: IC50 [M] (ProliFiler-140)): 2.6e-08 M
- IC50 (MOLT-4, MOLT-4, read-out: IC50): 2.6e-08 M
- IC50 (MV4-11, MV4-11 (Blood), read-out: IC50 [M] (ProliFiler-140)): 4.3e-09 M
- IC50 (NALM-6, NALM-6 (Blood), read-out: IC50 [M] (ProliFiler-140)): 2.3e-08 M
- IC50 (NCI-H82, NCI-H82 (Lung), read-out: IC50 [M] (ProliFiler-140)): 6.2e-07 M
- IC50 (NCI-H292, NCI-H292 (Lung), read-out: IC50 [M] (ProliFiler-140)): 7.2e-08 M
- IC50 (NCI-H441, NCI-H441 (Lung), read-out: IC50 [M] (ProliFiler-140)): 3.49e-07 M
- IC50 (NCI-H460, H460 (Lung), read-out: IC50 [M] (ProliFiler-140)): 2.6e-08 M
- IC50 (NCI-H838, NCI-H838 (Lung), read-out: IC50 [M] (ProliFiler-140)): 1.5e-07 M
- IC50 (NCI-H1048, NCI-H1048 (Lung), read-out: IC50 [M] (ProliFiler-140)): 3.2e-08 M
- IC50 (NCI-H1299, H1299 (Lung), read-out: IC50 [M] (ProliFiler-140)): 2.23e-07 M
- IC50 (NCI-H1437, NCI-H1437 (Lung), read-out: IC50 [M] (ProliFiler-140)): 1.39e-07 M
- IC50 (NCI-H1563, NCI-H1563 (Lung), read-out: IC50 [M] (ProliFiler-140)): 5.4e-07 M
- IC50 (NCI-H1573, NCI-H1573 (Lung), read-out: IC50 [M] (ProliFiler-140)): 3e-06 M
- IC50 (NCI-H1581, NCI-H1581 (Lung), read-out: IC50 [M] (ProliFiler-140)): 1.47e-07 M
- IC50 (NCI-H1703, NCI-H1703 (Lung), read-out: IC50 [M] (ProliFiler-140)): 9.2e-08 M
- IC50 (NCI-H1838, NCI-H1838 (Lung), read-out: IC50 [M] (ProliFiler-140)): 2.5e-07 M
SMILES: COc1cccc2c1C(=O)c1c(O)c3c(c(O)c1C2=O)C[C@@](O)(C(=O)CO)C[C@@H]3O[C@H]1C[C@H](N)[C@H](O)[C@H](C)O1 [doxorubicin, reference compound]
